The subject of the test is proIL-1β. In words: in vitro pro-IL1β activation in THP.1 cell lysates incubated at 30° C., Western blotting. It counts as biochemical, human. The settings on record: lysates of LPS-prestimulated THP.1 cells at 30° C. The method, then:
However, THP1 cells express caspase-5 even without LPS activation. FIG. 11c represents the results of experiments which emerge when cell lysates from THP.1 cells which have been prestimulated with LPS were incubated at 30° C. for the periods shown at the top in FIG. 11c. This is because caspase-1 activation is to be observed spontaneously when cytoplasmic cell extracts are heated to 30° C. The activation of caspase-1, caspase-5, caspase-9 and pro-IL1β, followed by Western blotting in the presence or absence of caspase inhibitors zVADfmk (50 μM), YVADfmk (5 μM) and proteasome inhibitor LLnL (50 μM) was measured as a function of time. Cytochrome C (1 ng) was added to activate Apaf-1 and caspase-9. The monoclonal antibodies employed to detect caspase-5 and caspase-9 each recognize the p20 subunit. The four sections of the picture in FIG. 11c depict the respective bands obtained by labeling with anti-caspase-1 antibody, anti-caspase-5 antibody, anti-caspase-9 antibody and anti-IL1β antibody. […]
Addition of the two caspase-1 inhibitors zVADfmk and YVADfmk blocked proIL-1β activation. […] Activation of pro-IL1β, caspase-1 and caspase-5 was measured both in the cell extracts (xt) and in the supernatants (SN). […] The cleavage of […] was detected by an antibody (anti-IL1β*) which specifically recognizes the cleaved form of pro-IL1β, i.e. IL1β*. […]
On the technique in general: In western blotting, separated proteins are transferred to a membrane and probed.

Peptide text beside a SMILES is read from it. * marks the point of attachment. Cbz = O=C(OCc1ccccc1)*; CH2F = FC*

For the molecule YVADfmk, the proIL-1β activation result (YVADfmk 5 μM) was “blocked”.

`COC(=O)C[C@H](NC(=O)[C@H](C)NC(=O)[C@@H](NC(=O)OCc1ccccc1)C(C)C)C(=O)CF` [zVADfmk] (Cbz-Val-Ala-Asp(OMe)-CH2F): the proIL-1β activation entry (zVADfmk 50 μM) is recorded as “blocked”.
